“Also recorded” adds a separate entry of the source.
Experiments:
[1] = test system: Aβ1-40 and Aβ1-42; assay: Aβ1-40 and Aβ1-42 ELISA in brain homogenate fractions and CSF of hAPP Tg mice; assay type: in vivo
Experimental: iv) Treatment • Forty female hAPP transgenic mice were treated with either 0.1 mg/kg b.w./every two weeks or 10 mg/kg b.w./every three weeks of the test substance XG-102 (SEQ ID NO: 11) in two different dosages (n=12/group) or treated with the vehicle (n=12) s.c. once every three weeks over four months.
vi) Tissue Sampling • At the end of the treatment period, and following all behavioral testing, all remaining mice (n=28) were sacrificed. Therefore, all mice were sedated by standard inhalation anesthesia (Isofluran, Baxter) as described in SOP MET030. Cerebrospinal fluid (CSF) was obtained by blunt dissection and exposure of the foramen magnum. Upon exposure, a Pasteur pipette was inserted to the approximate depth of 0.3-1 mm into the foramen magnum. CSF was collected by suctioning and capillary action until flow fully ceases. Two aliquots of each sample were immediately frozen and kept at −80° C. until ready for further analysis with ELISA technique. After CSF sampling, each mouse was placed in dorsal recumbence, thorax was opened and a 26-gauge needle attached to a 1 cc syringe was inserted into the right cardiac ventricular chamber. Light suction was applied to the needle and blood was collected into EDTA and consequently used to obtain plasma. To get plasma, blood samples from each mouse were spun at 1,750 rpm (700 g) for 10 minutes in a centrifuge (GS-6R Beckman) using a rotor with swing buckets (GH—3.8 Beckman). Plasma was frozen and stored at −20° C. until further analysis. After blood sampling transgenic mice were intracardially perfused with 0.9% sodium chloride. Brains were rapidly removed the cerebellum was cut off. The right hemispheres of all mice were immersion fixed in freshly produced 4% Paraformaldehyde/PBS (pH 7.4) for one hour at room temperature. Thereafter brains were transferred to a 15% sucrose PBS solution for 24 hours to ensure cryoprotection. […]
vii) Determination of Aβ1-40 and Aβ1-42 • In four different brain homogenate fractions of each Tg mouse as well as in CSF samples the Aβ1-40 and Aβ1-42 levels were evaluated with ELISA technique. […]

[2] = test system: murine T cells; assay: PMA & ionomycin-induced cytokine production in murine T cells; assay type: cell-based
[3] = test system: hAPP Tg mice; assay: Morris Water Maze in hAPP transgenic mice; assay type: in vivo
Experimental: i) Introduction • The study was designed to evaluate the efficacy of the test substance (XG-102, SEQ ID NO: 11) on behavioral, biochemical and histological markers using 5 months (±2 weeks) old female hAPP Tg mice. Therefore, mice were treated every two or three weeks up to 4 months and in the end of the treatment period behavior was evaluated in the Morris Water Maze. At sacrifice brain, CSF and blood were collected. Aβ40 and Aβ42 levels were determined in four different brain homogenate fractions as well as in CSF of Tg mice. Plaque load was quantified in the cortex and the hippocampus of 8 Tg animals per treatment group.
ii) Animals • Female Tg mice with a C57BL/6×DBA background and an age of 5 months (±2 week) were randomly assigned to treatment groups 1 to 3 (n=12). […]
v) Morris Water Maze (MWM) • The Morris Water Maze (MWM) task was conducted in a black circular pool of a diameter of 100 cm. […] For the quantification of escape latency (the time [second]—the mouse needed to find the hidden platform and therefore to escape from the water), of pathway (the length of the trajectory [meter] to reach the target) and of the abidance in the goal quadrant a computerized tracking system was used. […] The camera detected the signal of the light emitting diode (LED), which was fixed with a little hairgrip on the mouse's tail. […]

## CC(C)C[C@@H](NC(=O)[C@@H](Cc1ccccc1)NC(=O)[C@H]1CCCN1C(=O)[C@@H](CCC(N)=O)NC(=O)[C@H](NC(=O)[C@H]1CCCN1C(=O)[C@@H](CCCNC(=N)N)NC(=O)[C@@H](CO)NC(=O)[C@@H](CCC(N)=O)NC(=O)[C@H](N)CC(=O)O)C(C)C)C(=O)N[C@H](CC(N)=O)C(=O)N[C@H](CC(C)C)C(=O)N[C@@H](C(=O)N[C@@H](C(=O)N1CCC[C@@H]1C(=O)N[C@H](CCCNC(=N)N)C(=O)N[C@H](CCCCN)C(=O)N1CCC[C@@H]1C(=O)N[C@H](CCCNC(=N)N)C(=O)N1CCC[C@@H]1C(=O)N1CCC[C@@H]1C(=O)N[C@H](CCCNC(=N)N)C(=O)N[C@H](CCCNC(=N)N)C(=O)N[C@H](CCCNC(=N)N)C(=O)N[C@H](CCC(N)=O)C(=O)N[C@H](CCCNC(=N)N)C(=O)N[C@H](CCCNC(=N)N)C(=O)N[C@H](CCCCN)C(=O)N[C@H](CCCCN)C(=O)N[C@H](CCCNC(=N)N)C(=O)NCC(=O)O)[C@H](C)O)[C@H](C)O [XG-102]
[1]; both dosages
  brain homogenate Aβ1-40 levels: did not affect brain homogenate Aβ1-40 levels
[1]; both dosages, p<0.01 10 mg/kg, <0.05 low dosage
  CSF Aβ1-40 and Aβ1-42 levels: a significant decrease of Aβ1-40 and Aβ1-42 in CSF; also recorded: significantly decreased in CSF compared to vehicle group
[1]; low dose 0.1 mg/kg, p<0.05 vs vehicle
  Aβ1-42 level in Triton X-100 fraction: a significant reduction compared to the vehicle group
[2]
  PMA & ionomycin-induced TNFa and IFNg production: also inhibits cytokine release in primary lymphoid and myeloid cells
[3]; 0.1 mg/kg
  learning performance in the MWM: a tendency to have worse learning performance between day 1 and day 4
[3]; 0.1 mg/kg every two weeks or 10 mg/kg every three weeks s.c., four months
  spatial learning in the MWM: remained widely uninfluenced

— patent publication US9006185B2, “Use of cell-permeable peptide inhibitors of the JNK signal transduction pathway for the treatment of various diseases” (Xigen Inflammation Ltd., priority 2008, dated 2015)
